Test results: ChEMBL document CHEMBL3390831, “Design, synthesis, and structureactivity relationships of indole-3-carboxamides as novel water soluble cannabinoid CB1 receptor agonists” (Medchemcomm, 2010)
pEC50, pKi: −log10 of the molar value.

Columns and labels:
[1] = target: T1, Cannabinoid receptor 1 (Homo sapiens, UniProt P21554)
Description: Agonist activity at human cannabinoid CB1 receptor expressed in CHO cells co-expressing AP-1 response element after 5 hrs by luciferase reporter gene assay

[2] = Aqueous solubility of the compound in phosphate buffered saline at pH 7 by shake-flask method; type: physicochemical
[3] = Aqueous solubility of the compound in citrate buffer at pH 5 by shake-flask method; type: physicochemical
[4] = Aqueous solubility of the compound in phosphate buffered saline at pH 6.7 by shake-flask method; type: physicochemical
[5] = Aqueous solubility of the compound in phosphate buffered saline at pH 7.1 by shake-flask method; type: physicochemical
[6] = Cmax in ICR mouse plasma at 3 umol/kg, iv; type: ADME, cell-free; set-up: dose 3 umol/kg, route intravenous
[7] = species: Homo sapiens; assay: Selectivity ratio of Ki for human ERG to Ki for human cannabinoid CB2 receptor
[8] = system: Mus musculus; assay: Antinociceptive activity in iv dosed ICR mouse assessed as inhibition of time spent licking formalin injected paw after 5 to 30 mins; type: functional, organism-based
[9] = system: Mus musculus; assay: Antinociceptive activity in iv dosed ICR mouse assessed as increase of tail flick latency after 20 to 60 mins by tail flick latency test; type: functional, organism-based
[10] = system: Mus musculus; assay: Antinociceptive activity in ICR mouse assessed as increase of tail flick latency at 1 umol/kg, iv after 20 to 60 mins by tail flick latency test relative to control; type: functional
[11] = system: Mus musculus; assay: Antinociceptive activity in ICR mouse assessed as increase of tail flick latency at 0.3 umol/kg, iv after 20 to 60 mins by tail flick latency test relative to control; type: functional
[12] = Tmax in ICR mouse brain at 3 umol/kg, iv; type: ADME, tissue-based
[13] = system: Mus musculus; assay: Antinociceptive activity in ICR mouse assessed as inhibition of time spent licking formalin injected paw at 0.01 umol/kg, iv after 5 to 10 mins relative to control; type: functional
[14] = target: T1, Cannabinoid receptor 1; assay: biochemical
[15] = system: Mus musculus; assay: Antinociceptive activity in ICR mouse assessed as inhibition of time spent licking formalin injected paw at 0.03 umol/kg, iv after 5 to 10 mins relative to control; type: functional
[16] = Volume of distribution at steady state in ICR mouse plasma at 3 umol/kg, iv; type: ADME, cell-free; conditions: read-out: Vdss
[17] = Ratio of Cmax in brain to plasma in ICR mouse at 3 umol/kg, iv; type: ADME, cell-free; conditions: brain and plasma, read-out: BPR
[18] = AUC in ICR mouse plasma at 3 umol/kg, iv; type: ADME, cell-free
[19] = Cmax in ICR mouse brain at 3 umol/kg, iv; type: ADME, tissue-based; set-up: dose 3 umol/kg, route intravenous
[20] = system: Mus musculus; assay: Antinociceptive activity in ICR mouse assessed as inhibition of time spent licking formalin injected paw at 0.1 umol/kg, iv after 5 to 10 mins relative to control; type: functional
[21] = Tmax in ICR mouse plasma at 3 umol/kg, iv; type: ADME, cell-free
[22] = system: Mus musculus; assay: Antinociceptive activity in iv dosed ICR mouse assessed as time taken for tail flick latency to return to within mean plus two standard deviations of baseline value following twice ED50 dose by tail flick latency test; type: functional
[23] = system: Brain; assay: AUC (0 to 1 hr) in ICR mouse brain at 3 umol/kg, iv; type: ADME, tissue-based; set-up: time < 1 hr, dose 3 umol/kg, route intravenous; conditions: in vivo
[24] = target: Cannabinoid receptor 2 (Homo sapiens, UniProt P34972); assay: Displacement of [3H]-CP55940 from human cannabinoid CB2 receptor expressed in Sf9 insect cells after 70 mins by scintillation counting
[25] = system: Mus musculus; assay: Antinociceptive activity in ICR mouse assessed as inhibition of time spent licking formalin injected paw at 0.1 umol/kg, iv after 20 to 30 mins relative to control; type: functional
[26] = system: Mus musculus; assay: Antinociceptive activity in ICR mouse assessed as inhibition of time spent licking formalin injected paw at 0.01 umol/kg, iv after 20 to 30 mins relative to control; type: functional
[27] = Intrinsic clearance in human liver microsomes; type: ADME; conditions: read-out: CLH
[28] = species: Homo sapiens; assay: Selectivity ratio of Ki for human ERG to Ki for human cannabinoid CB1 receptor
[29] = Clearance in ICR mouse plasma at 3 umol/kg, iv; type: ADME, cell-free
[30] = Elimination half life in ICR mouse plasma at 3 umol/kg, iv; type: ADME, cell-free; conditions: read-out: beta t1/2 (converted)
[31] = system: Mus musculus; assay: Antinociceptive activity in ICR mouse assessed as increase of tail flick latency at 0.1 umol/kg, iv after 20 to 60 mins by tail flick latency test relative to control; type: functional
[32] = system: Mus musculus; assay: Antinociceptive activity in ICR mouse assessed as inhibition of time spent licking formalin injected paw at 0.3 umol/kg, iv after 5 to 10 mins relative to control; type: functional
[33] = system: Mus musculus; assay: Antinociceptive activity in ICR mouse assessed as inhibition of time spent licking formalin injected paw at 0.03 umol/kg, iv after 20 to 30 mins relative to control; type: functional
[34] = system: Mus musculus; assay: Antinociceptive activity in ICR mouse assessed as inhibition of time spent licking formalin injected paw at 0.3 umol/kg, iv after 20 to 30 mins relative to control; type: functional
[35] = Intrinsic clearance in mouse liver microsomes; type: ADME; conditions: read-out: CLH
[36] = Aqueous solubility of the compound in phosphate buffered saline at pH 7.4 by shake-flask method; type: physicochemical
[37] = Aqueous solubility of the compound in phosphate buffered saline at pH 6.9 by shake-flask method; type: physicochemical
[38] = Aqueous solubility of the compound in citrate buffer at pH 4.9 by shake-flask method; type: physicochemical
[39] = system: Mus musculus; assay: Antinociceptive activity in ICR mouse assessed as increase of tail flick latency at 0.2 umol/kg, iv after 20 to 60 mins by tail flick latency test relative to control; type: functional
[40] = system: Mus musculus; assay: Antinociceptive activity in ICR mouse assessed as increase of tail flick latency at 0.4 umol/kg, iv after 20 to 60 mins by tail flick latency test relative to control; type: functional

T1 sequence (P21554 whole entry): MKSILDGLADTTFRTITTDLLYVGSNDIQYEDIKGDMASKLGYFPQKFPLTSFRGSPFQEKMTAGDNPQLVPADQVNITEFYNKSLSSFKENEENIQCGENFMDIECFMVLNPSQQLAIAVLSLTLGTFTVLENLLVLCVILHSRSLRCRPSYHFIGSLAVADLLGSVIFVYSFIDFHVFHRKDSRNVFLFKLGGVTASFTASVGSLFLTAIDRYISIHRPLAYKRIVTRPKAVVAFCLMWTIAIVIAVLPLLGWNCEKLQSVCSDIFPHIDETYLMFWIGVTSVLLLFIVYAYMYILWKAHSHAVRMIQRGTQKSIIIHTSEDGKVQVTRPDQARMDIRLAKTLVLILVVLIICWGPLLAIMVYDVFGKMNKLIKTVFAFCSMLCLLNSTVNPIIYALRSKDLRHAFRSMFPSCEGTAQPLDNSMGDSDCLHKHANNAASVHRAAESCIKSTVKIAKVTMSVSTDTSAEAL
Sequence of Cannabinoid receptor 2 (P34972 whole entry): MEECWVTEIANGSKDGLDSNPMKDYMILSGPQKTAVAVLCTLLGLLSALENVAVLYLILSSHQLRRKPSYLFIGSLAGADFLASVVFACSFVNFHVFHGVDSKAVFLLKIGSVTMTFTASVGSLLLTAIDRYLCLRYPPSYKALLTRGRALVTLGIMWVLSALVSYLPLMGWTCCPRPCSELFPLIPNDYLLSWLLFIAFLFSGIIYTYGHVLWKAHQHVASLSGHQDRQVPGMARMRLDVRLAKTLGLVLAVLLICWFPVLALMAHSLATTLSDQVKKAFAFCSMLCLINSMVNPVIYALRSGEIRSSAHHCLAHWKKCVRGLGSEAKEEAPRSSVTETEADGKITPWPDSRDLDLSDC

CN(C)CCN(C)C(=O)c1cn(CC2CCCCC2)c2ccccc12
pEC50 [1]: < 5.50

CN1CCN(C(=O)c2cn(CC3CCCCC3)c3ccccc23)CC1
pEC50 [1]: 6.30

CCN1[C@H](C)CN(C(=O)c2cn(CC3CCCCC3)c3c(OC)cccc23)C[C@@H]1C.Cl
solubility thermodynamic [2]: 9 µg/mL
solubility thermodynamic [3]: > 4000 µg/mL

CCN1CCN(C(=O)c2cn(CC3CCCCC3)c3cccc(F)c23)CC1
pEC50 [1]: 6.60

CCN1CCN(C(=O)c2cn(CC3CCCCC3)c3cc(F)ccc23)CC1
pEC50 [1]: 6.60

CN(C)CCNC(=O)c1cn(CC2CCCCC2)c2ccccc12
pEC50 [1]: < 5.50

CCN1CCN(C(=O)c2cn(CC3CCCCC3)c3c(C)cccc23)CC1
pEC50 [1]: 6.70

Cc1ccc2c(c1)c(C(=O)N1CCN(C)CC1)cn2CC1CCCCC1
pEC50 [1]: 5.70

COc1cccc2c(C(=O)N3CCN(C)C(C)(C)C3)cn(CC3CCCCC3)c12.Cl
solubility thermodynamic [2]: 129 µg/mL
pEC50 [1]: 6.80
solubility thermodynamic [3]: 2160 µg/mL

CCN1CCN(C(=O)c2cn(CC3CCCCC3)c3c(OC)cccc23)CC1.O=C(O)/C=C\C(=O)O
solubility thermodynamic [4]: 216 µg/mL
solubility thermodynamic [3]: 3400 µg/mL

CCN1CCN(C(=O)c2cn(Cc3ccccc3)c3c(OC)cccc23)CC1
pEC50 [1]: < 5.50

COc1cccc2c(C(=O)N3CCN(C)[C@H](C)C3)cn(CC3CCCCC3)c12.Cl
solubility thermodynamic [5]: 88 µg/mL
pEC50 [1]: 6.90
solubility thermodynamic [3]: 2860 µg/mL

CCN1CCN(C(=O)c2cn(CC3CCCCC3)c3c(OC)cccc23)C[C@H]1C.Cl
solubility thermodynamic [5]: 74 µg/mL
pEC50 [1]: 6.20
solubility thermodynamic [3]: > 4000 µg/mL

CCN1CCN(C(=O)c2cn(CC3CCCCC3)c3c(Cl)cccc23)CC1
pEC50 [1]: 6.30

O=C(Cc1ccccc1)N/N=C1\C(=O)N(CC2CCCCC2)c2cc(OCCN3CCOCC3)ccc21
pEC50 [1]: 7.20

CCN1CCN(C(=O)c2cn(CC3CCCCC3)c3cc(OC)ccc23)CC1
pEC50 [1]: 6.80

CCN1CCN(C(=O)c2cn(CC3CCCCCC3)c3c(OC)cccc23)CC1
pEC50 [1]: 6.10

Cc1ccc2c(C(=O)N3CCN(C)CC3)cn(CC3CCCCC3)c2c1
pEC50 [1]: 6.50

CCN1CCN(C(=O)c2cn(CC3CCCCC3)c3ccc(F)cc23)CC1
pEC50 [1]: 6.30

COc1cccc2c(C(=O)N3C[C@@H](C)N(C)[C@@H](C)C3)cn(CC3CCCCC3)c12.Cl
Cmax [6]: 593 ng/mL
Ratio Ki [7]: > 100
inhibition [8]: Dose-dependent effect
Activity [9]: Dose-dependent effect
MPE [10]: 100%
MPE [11]: 72.3%
Tmax [12]: 3 min
inhibition in vivo at 0.01 µmol/kg [13]: 16.4%
pKi [14]: 8.90
inhibition in vivo at 0.03 µmol/kg [15]: 49.5%
Vd [16]: 2 L/kg
Kp [17]: 2.7
AUC [18]: 253 ng·h/mL
Cmax [19]: 1620 ng/g
inhibition in vivo at 0.1 µmol/kg [20]: 84%
Tmax [21]: 3 min
solubility thermodynamic [2]: 12 µg/mL
Time [22]: 50 min
AUC [23]: 616 ng·h/g
pKi [24]: 9.10
inhibition in vivo at 0.1 µmol/kg [25]: 93.3%
inhibition in vivo at 0.01 µmol/kg [26]: 7.8%
microsomal CLint [27]: > 270 µL/min/mg
Ratio Ki [28]: > 100
clearance [29]: 77.4 mL/min/kg
half-life [30]: 19.2 min
MPE [31]: 14.5%
inhibition in vivo at 0.3 µmol/kg [32]: 97.8%
inhibition in vivo at 0.03 µmol/kg [33]: 86.9%
inhibition in vivo at 0.3 µmol/kg [34]: 99.8%
microsomal CLint [35]: > 270 µL/min/mg
solubility thermodynamic [3]: > 4000 µg/mL

CCN1CCN(C(=O)c2cn(CC3CCCCC3)c3ccc(Cl)cc23)CC1
pEC50 [1]: 5.90

O=C(N/N=C1\C(=O)N(Cc2ccccc2)c2ccccc21)c1ccccc1
pEC50 [1]: 6.20

CCN1CCN(C(=O)c2cn(CC3CCCCC3)c3cc(Cl)ccc23)CC1
pEC50 [1]: 5.80

CCN1CCN(C(=O)c2cn(CC3CCCCC3)c3ccc(OC)cc23)CC1
pEC50 [1]: < 5.50

O=C(NCc1ccccc1)c1cn(CC2CCCCC2)c2ccccc12
pEC50 [1]: 7.20

CCN1CCN(C(=O)c2cn(CC3CCCCC3)c3c(OC)cccc23)C[C@@H]1C.Cl
solubility thermodynamic [5]: 37 µg/mL
pEC50 [1]: 7.40
solubility thermodynamic [3]: > 4000 µg/mL

CCN1CCN(C(=O)c2cn(CC3CCCCC3)c3ccccc23)CC1
pEC50 [1]: 6.50

CCN1CCN(C(=O)c2cn(CC3CCCCC3)c3cc(Br)ccc23)CC1
pEC50 [1]: 6.00

CS(=O)(=O)O.O=C(Cc1ccccc1)N/N=C1\C(=O)N(CC2CCCCC2)c2cc(OCCN3CCOCC3)ccc21
solubility thermodynamic [36]: < 500 µg/mL

CCN1CCN(C(=O)c2cn(CCN3CCOCC3)c3c(OC)cccc23)CC1
pEC50 [1]: < 5.50

CCN1CCN(C(=O)c2cn(CC3CCCCC3)c3c(Br)cccc23)CC1
pEC50 [1]: 6.10

COc1cccc2c(C(=O)N3CCN(C)[C@@H](C)C3)cn(CC3CCCCC3)c12.Cl
Cmax [6]: 620 ng/mL
Ratio Ki [7]: > 100
inhibition [8]: Dose-dependent effect
Activity [9]: Dose-dependent effect
MPE [10]: 100%
Tmax [12]: 10.2 min
solubility thermodynamic [37]: 129 µg/mL
inhibition in vivo at 0.01 µmol/kg [13]: 25.7%
pKi [14]: 8.90
inhibition in vivo at 0.03 µmol/kg [15]: 66%
solubility thermodynamic [38]: 2810 µg/mL
Vd [16]: 2.1 L/kg
Kp [17]: 4
AUC [18]: 248 ng·h/mL
MPE [39]: 18.3%
Cmax [19]: 2460 ng/g
inhibition in vivo at 0.1 µmol/kg [20]: 99%
Tmax [21]: 3 min
Time [22]: 90 min
AUC [23]: 804 ng·h/g
pKi [24]: 8.80
MPE [40]: 50.1%
inhibition in vivo at 0.1 µmol/kg [25]: 93.4%
inhibition in vivo at 0.01 µmol/kg [26]: 49.2%
microsomal CLint [27]: > 270 µL/min/mg
Ratio Ki [28]: > 100
clearance [29]: 77.3 mL/min/kg
half-life [30]: 24.6 min
inhibition in vivo at 0.3 µmol/kg [32]: 100%
inhibition in vivo at 0.03 µmol/kg [33]: 79.7%
inhibition in vivo at 0.3 µmol/kg [34]: 100%
microsomal CLint [35]: > 270 µL/min/mg

Cc1cccc2c1c(C(=O)N1CCN(C)CC1)cn2CC1CCCCC1
pEC50 [1]: < 5.50

CCN1CCN(C(=O)c2cn(CC3CCCCC3)c3c(OC)cccc23)CC1(C)C.Cl
solubility thermodynamic [5]: 181 µg/mL
pEC50 [1]: 6.90
solubility thermodynamic [3]: 3830 µg/mL
